One test relates to adult αMHC-GFP TTFs. Nature of the test: Flow cytometry of αMHC-GFP+ and cTnT+ TTFs after retroviral reprogramming. Particulars: ZNF281 added to 5F (6F), 7 days. Type of test: cell-based, mouse. Here is the method:
(§1) Retroviruses production, cellular reprogramming and treatment. For retroviruses production, Platinum E cells were seeded into culture dishes (1×10^5 cells/cm2) one day before transfection in DMEM supplemented with 10% FBS and 1% penicillin/streptomycin. Cells reached ˜80% confluency on the day of transfection. DNA plasmids were transfected into Platinum E cells using FuGENE 6 transfection reagent. Twenty-four hours after transfection, wild type or αMHC-GFP tail-tip fibroblasts were seeded into culture dishes or plates that were precoated with SureCoat (Cellutron) for one hour at a density of 6×10^4/cm^2. Forty-eight hours after transfection, polybrene was added to viral medium that was filtered through a 0.45-μm filter at a concentration of […]. The mixture replaced the growth medium in the cell culture plate with tail-tip fibroblasts. The viral infection was serially repeated twice. Twenty-four hours after the second infection, the viral medium was replaced with induction medium, composed of DMEM/199 (4:1), 10% conditioned medium obtained from neonatal rat cardiomyocyte culture, 10% FBS, 5% horse serum, 1% penicillin/streptomycin, 1% nonessential amino acids, 1% essential amino acids, 1% B-27, 1% insulin-selenium-transferrin, 1% vitamin mixture, and 1% sodium pyruvate (Invitrogen). Small molecule treatments were used throughout the reprogramming process […] (Sigma).
Flow Cytometry. For flow Cytometry, cells were trypsinized and fixed with fixation buffer (BD Bioscience) for 15 min on ice. Fixed cells were washed with Perm/Wash buffer (BD Bioscience) for three times. […] Cells were washed with Perm/Wash buffer, and then analyzed using FACS Caliber (BD Sciences) and FlowJo software.
ZNF281 enhances cardiac reprogramming of adult fibroblasts. […] The addition of ZNF281 to 5F increased the expression of GFP and cTnT in αMHC-GFP CFs evaluated by immunocytochemistry after 7 days of reprogramming (FIG. 10A). […]

Test [1] deals with αMHC-GFP adult cardiac fibroblasts (CF). The test can be described thus: Flow cytometry (FACS) of αMHC-GFP+ and cTnT+ adult cardiac fibroblasts after reprogramming. Type of test: cell-based, mouse. Particulars: ZNF281 added to 5F, adult CFs, 7 days. Here is the method:
Flow Cytometry. For flow Cytometry, cells were trypsinized and fixed with fixation buffer (BD Bioscience) for 15 min on ice. Fixed cells were washed with Perm/Wash buffer (BD Bioscience) for three times. Washed cells were incubated with mouse monoclonal anti-cardiac Troponin T (cTnT) antibody (Thermo Scientific) at 1:200 dilution and Rabbit anti-GFP antibody (Thermo Scientific) at 1:200 dilution in Perm/Wash buffer for 1 hr on ice. Cells then were washed with Perm/Wash buffer for three times followed by incubation with donkey anti-mouse Alexa fluor 647 (Invitrogen) at 1:200 and goat anti-rabbit Alexa fluor 488 at 1:200 (Invitrogen). Cells were washed with Perm/Wash buffer, and then analyzed using FACS Caliber (BD Sciences) and FlowJo software.
(§2) ZNF281 enhances cardiac reprogramming of adult fibroblasts. PHF7 and ZNF281 were the two strongest activators identified from retroviral cDNA expression screen with 5F (FIG. 1D; Table S2). PHF7 is only expressed in the male germ line (Yang et al., 2012), whereas ZNF281 has a broad expression pattern with enriched expression in the heart (FIG. 51). The inventors therefore focused their initial attention on ZNF281 and explored its ability to enhance the activity of 5F. They refer to the reprogramming mix of 5F plus ZNF281 as 6F. The inventors validated the results of their screen by assessing GFP and cTnT expression in αMHC-GFP TTFs following 5F and 6F reprogramming after 7 days (FIG. 3A). […] This TTF reprogramming efficiency using 6F is noteworthy when considering the relatively low statistical likelihood of each fibroblast taking up all five or six separate retroviruses encoding the reprogramming factors. The inventors also examined the expression of cardiac and fibroblast transcripts by q-PCR. […] The addition of ZNF281 to 5F increased the expression of GFP and cTnT in αMHC-GFP CFs evaluated by immunocytochemistry after 7 days of reprogramming (FIG. 10A). […]
In general terms: In flow cytometry, cells or beads pass a laser one at a time.

The test system of another test is adult TTFs. Nature of the test: q-PCR of marker transcripts in retrovirally reprogrammed adult TTFs. Type of test: cell-based, mouse. The note with it: ZNF281 added to 5F, versus 5F. The protocol:
as §1
Quantitative mRNA measurement. Total RNA was extracted using TRIzol (Invitrogen) according vender's protocol. RNAs were retrotranscribed to cDNA using iScript Supermix (Bio-Rad). qPCR was performed using Kapa Sybr Fast (Kapa Biosystems). mRNA levels were normalized by comparison to Gapdh mRNA.
ZNF281 enhances cardiac reprogramming of adult fibroblasts. PHF7 and ZNF281 were the two strongest activators identified from retroviral cDNA expression screen with 5F (FIG. 1D; Table S2). PHF7 is only expressed in the male germ line (Yang et al., 2012), whereas ZNF281 has a broad expression pattern with enriched expression in the heart (FIG. 51). The inventors therefore focused their initial attention on ZNF281 and explored its ability to enhance the activity of 5F. They refer to the reprogramming mix of 5F plus ZNF281 as 6F. […] The addition of ZNF281 to 5F increased the expression of GFP and cTnT in αMHC-GFP CFs evaluated by immunocytochemistry after 7 days of reprogramming (FIG. 10A). […]
Co-repression of inflammatory genes by ZNF281 and NuRD complex components. […] Addition of NuRD complex subunits also promoted cardiac reprogramming, as measured by flow cytometry using the cardiac markers αMHC-GFP and cTnT (FIG. 5B, FIGS. S2A-B).

For another test, the target named is T1, Myc-tagged GATA4 (Homo sapiens, UniProt P43694).
T1 construct: expressed in transfected cells; host or cells: HEK293
Nature of the test: Co-immunoprecipitation in transfected HEK293 cells. It is filed as binding. The protocol:
(§3) Immunoprecipitation and Western Blot Analysis. Flag-epitope tag ZNF281 fusion protein were co-expressed with myc-epitope tag fusion GATA4, HAND2, MEF2C or TBX5 in HEK293 cells for 48 hours. Cell lysates were incubated overnight with 1 μg of mouse monoclonal anti-FLAG antibody (Sigma). The cell lysates were pulldown using magnetic Protein G Dynabeads (Invitrogen) and then the Flag-ZNF281 was eluted using 0.5 mg/ml of free Flag peptide (Sigma). The final elution and the input obtained before the immunoprecipitation was analyzed by SDS-PAGE western blot using a mouse monoclonal anti-Myc antibody (Novex) or mouse monoclonal anti-FLAG antibody (Sigma).
(§4) ZNF281 is a GATA4 coactivator. Previous reports described the influence of ZNF281 on pluripotency, stemness and epithelial-mesenchymal transition (EMT) (Hahn and Hermeking, 2014). However, the potential involvement of ZNF281 in cardiac development has not been previously explored. To begin to define the molecular mechanism whereby ZNF281 enhances cardiac reprogramming, the inventors performed co-immunoprecipitation assays with ZNF281 and each reprogramming transcription factor in transfected HEK293 cells.

Test [2] relates to Myc-tagged HAND2, MEF2c, or TBX5. The test can be described thus: Co-immunoprecipitation in transfected HEK293 cells. It is filed as binding. Here is the method:
as §3, §4

The subject of test [3] is adult cardiac fibroblasts (CF). Nature of the test: Beating cells after 4 weeks of reprogramming. It is filed as cell-based, mouse. Particulars: ZNF281 in presence of 5F.
Text: as §2

Test [4] has as its system αMHC promoter (αMHC-Luciferase). The test can be described thus: αMHC-luciferase reporter assay in HEK293 cells. It is filed as cell-based. The source says: To determine if ZNF281 could directly activate cardiac genes, the inventors examined the ability of ZNF281 to activate a luciferase reporter controlled by the αMHC promoter (αMHC-Luciferase).
(In general: Reporter assays use an easily measured gene product as a stand-in for the process of interest.)

T1 sequence (P43694 whole entry): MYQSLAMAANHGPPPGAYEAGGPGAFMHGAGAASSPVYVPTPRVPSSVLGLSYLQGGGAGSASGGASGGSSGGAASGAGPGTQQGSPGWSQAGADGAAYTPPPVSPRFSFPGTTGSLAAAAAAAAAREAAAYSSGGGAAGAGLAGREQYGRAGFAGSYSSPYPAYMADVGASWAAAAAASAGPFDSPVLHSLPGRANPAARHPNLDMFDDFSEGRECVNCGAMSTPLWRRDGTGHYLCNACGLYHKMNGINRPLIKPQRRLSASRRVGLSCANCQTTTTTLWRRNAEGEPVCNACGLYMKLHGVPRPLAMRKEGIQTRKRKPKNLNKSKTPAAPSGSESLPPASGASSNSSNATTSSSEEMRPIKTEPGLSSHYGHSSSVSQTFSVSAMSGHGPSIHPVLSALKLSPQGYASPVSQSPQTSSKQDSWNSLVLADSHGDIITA

In the case of Zinc finger protein 281 [ZNF281], in the test on adult αMHC-GFP TTFs, the “cTnT+ TTFs” value is given as around 45%, the “αMHC-GFP+ TTFs” value is reported as around 33% and the “αMHC-GFP+/cTnT+ TTFs” value is around 28%. For the same substance, in test [1], the “cTnT+ iCMs” value is given as around 45%, the “αMHC-GFP+ iCMs” value is listed as around 25% and the “αMHC-GFP+/cTnT+ iCMs” value is listed as around 21%. Further, in the test with adult TTFs, the “decrease of Col1a2 expression” value was around 30%, the “decrease of Sox9 expression” value is around 60%, the “increase of Actc1 expression” value is reported as around 20 fold and the “increase of Myh6 expression” value was around 120 fold. Also, the “co-immunoprecipitation of FLAG-tagged ZNF281” value at Myc-tagged GATA4 is on record as “co-immunoprecipitated”. Moreover, the “co-immunoprecipitation of FLAG-tagged ZNF281” value in test [2] is listed as “not with the other three factors”. Moreover, the “increase in the number of beating cells” value in test [3] turned out to be 2 fold. For the same substance, the “activation of αMHC-Luciferase reporter” value in test [4] (ZNF281 alone) is reported as around 7 fold. Also, in test [4] (ZNF281 co-expressed with GATA4), the “activation of αMHC-Luciferase reporter” value is around 15 fold.

The values above are taken from US20210180023A1, “CARDIAC REPAIR BY REPROGRAMMING OF ADULT CARDIAC FIBROBLASTS INTO CARDIOMYOCYTES” (The Board of Regents of the University of Texas System, priority 2017, published 2021).
